Values of other authors as cited in the PKSmart pharmacokinetics tables (Seal et al. 2025).

Tests used:
[1] = Lombardo et al. 2013, J Clin Pharmacol 53:178, doi 10.1177/0091270012440282; details: for Vd / clearance: in vivo, iv; for fraction unbound: plasma
[2] = Lombardo, Berellini, Obach 2018, Drug Metab Dispos 46:1466, doi 10.1124/dmd.118.082966; details: human; for MRT / Vd / clearance / half-life: in vivo, iv; for fraction unbound: plasma

SMILES	Vd ([1]; rat) [L/kg]	clearance ([1]; rat) [mL/min/kg]	MRT [2] [h]	Vd [2] [L/kg]	clearance [2] [mL/min/kg]	half-life [2] [h]	Vd ([1]; dog) [L/kg]	clearance ([1]; dog) [mL/min/kg]	fraction unbound ([1]; dog)	fraction unbound ([1]; rat)	fraction unbound [2]	Vd ([1]; monkey) [L/kg]	clearance ([1]; monkey) [mL/min/kg]	fraction unbound ([1]; monkey)
CC(C)C[C@H](NC(=O)C(NC(=O)c1cccc(-c2ccccc2)n1)[C@@H](C)O)B(O)O (stereo not given in full)	18.1	3.17	50.6	0.87	0.29	42.1								
COCCCOc1ccnc(C[S+](O)c2nc3ccccc3[n-]2)c1C (stereo not given)	1.04	82.4	0.92	0.22	4	1	2.62	86	0.0864	0.073				
CON=C(C(=O)NC1C(=O)N2C(C(=O)O)=C(CSc3nnnn3C)CS[C@H]12)c1csc(N)n1 (stereo not given in full)	0.28	7.46	0.77	0.2	3.65	0.89	0.3	8.91			0.31			
O=NN(CCCl)C(=O)NCCCl			0.26	1.2	78	0.37	1.1	17.8			0.23	0.9	21	
Cc1cc(=O)n(-c2ccccc2)n1C	0.81	9.1	20	0.77	0.64	12	0.09	6.3	0.6	1		0.74	4.6	0.908
CO[C@@]1(NC(O)=c2sc(=C(C(N)=O)C(=O)O)s2)C(=O)N2C(C(=O)O)=C(CSc3nnnn3C)CS[C@@H]21	0.25	12.8	5.2	0.13	0.42	4.5	0.25	4	0.6	0.7	0.15	0.17	1.7	0.13
C[C@@H](CN1CC(=O)NC(=O)C1)N1CC(=O)NC(=O)C1			3	0.55	3.1	2.5	0.72	11.5						
CN1CCN(c2c(F)cc3c(=O)c(C(=O)O)cn(CCF)c3c2F)CC1	1.3	5.8	11	1.6	2.4	8.6	1.3	1.6	0.51	0.49		1.2	4	0.607
c1ccc2c(c1)OCC(C1=NCCN1)O2 (stereo not given)	3.1	71.2	5.5	3.3	10	4.2								
CC(C)NCC(O)COc1cccc2[nH]ccc12 (stereo not given)	1.36		2.6	1.2		2.2	17							
COc1cc(Cc2cnc(N)nc2N)cc(OC)c1OC	2.1		12	1.5		9.6	1.74		0.708	0.51				
COc1cc2nc(N3CCN(C(=O)C(C)OC)CC3)nc(N)c2cc1OC (stereo not given)	5.9	44.2	13.7	0.44	0.53									
C[C@@H](O)C1C(=O)N2C(C(=O)O)=C(COC(N)=O)S[C@H]12 (stereo not given in full)	0.05	15.5	0.54	0.24	7.55	0.54	0.22	7.4	0.95	0.5	0.72	0.14	4.65	0.56
CC(C)NCC(O)COc1ccc(CCOCC2CC2)cc1 (stereo not given)	12	154	24	4.8	3.4	17	8.2	20	0.47	0.54				
CCC1(c2ccccc2)C(=O)NC(=O)NC1=O	1.02	0.8	140	0.54	0.063	99	0.79	0.1	0.54	0.64				
CNC(=O)c1cccc2c(Nc3ccc(NS(C)(=O)=O)cc3OC)c3cccc(C)c3nc12	2	66	1.9	0.3	2.6	2.4	1	3.7	0.0038	0.011	0.0011			
CC(C)(ON=C(C(=O)NC1C(=O)N2C(C(=O)O)=C(C[n+]3ccccc3)CS[C@H]12)c1csc(N)n1)C(=O)[O-] (stereo not given in full)	0.3	8.7	2.2	0.31	2.4	1.8	0.21	3.2	1		0.79	0.26	2.1	0.945
Cc1nc2sccn2c(=O)c1CCN1CCC(=C(c2ccc(F)cc2)c2ccc(F)cc2)CC1	8	26.7	46.1	1.41	0.51	40				0.015	0.008			
CCN(CC)C(=O)/C(C#N)=C/c1cc(O)c(O)c([N+](=O)[O-])c1	0.24	10.8	0.38	0.27	12									
O=C(O)Cc1ccccc1Nc1c(Cl)cccc1Cl	1.39	16.8	1	0.22	3.5	1.4	0.19	1.4				0.32	8.5	
C=c1cc(C)[nH]c1=Cc1c(O)[nH]c2ccccc12	1.6	45	1.17	0.98	14	0.83	1.4	52		0.007	0.008	1.63	27.7	
CCC#CC[C@H](C)[C@H](O)C#C[C@@H]1[C@H]2C/C(=C/COCC(=O)O)C[C@H]2C[C@H]1O	1	49	0.35	0.08	3.8	1.1						1.2	14.3	
NCc1ccccc1CC(=O)NC1C(=O)N2C(C(=O)O)=C(CSc3nnnn3CC(=O)O)CS[C@H]12 (stereo not given in full)	0.5	5.4	4.3	0.17	0.66	3	0.5	6.5			0.19			
Nc1cc(-c2ccncc2)c[nH]c1=O			2.4	1.3	8.9	2	1.2	6			0.89			
C#C[C@]1(O)CC[C@H]2[C@@H]3CCc4cc(O)ccc4[C@H]3CC[C@@]21C	5.7	55	11	4.3	7	9.7	17	25		0.0088	0.014	7.2	36	0.0099
Cc1ccc(-c2nc3ccc(C)cn3c2CC(=O)N(C)C)cc1	1.05	48.7	2.1	0.54	4.3	1.7				0.17				
